From patent US12546776B2, “Modulation of protein degradation” (Orionis Biosciences, Inc., priority 2019, dated 2026)

What was measured:
ASS1 = ASS1 (Homo sapiens, UniProt P00966+Q96SW2); experiment: ASS1 degradation by Western blot in HEK293T cells co-transfected with FLAG-ASS1 and HA-CRBN; format: cell-based; conditions: 0.3-30 μM, 24 hours
Method: FIG. 4 Ligand-induced recruitment of ASS1 to CRBN is associated with degradation of ASS1 in living cells. In this study we examined whether ligand-induced recruitment of ASS1 to CRBN could lead to subsequent ASS1 degradation (as triggered by interaction with the CRBN E3 ligase). HEK293 cells were co-transfected with cDNA constructs encoding Flag-tagged ASS1 and HA-tagged CRBN and exposed to increasing concentration of CC220 for 24 hours. Samples were generated for Western blot analysis to determine steady state levels of ASS1 across the different experimental conditions, assessed using and anti-Flag antibody. As shown, loss of ASS1 expression (but not actin control protein expression) was observed specifically in response to CC220 exposure, and in a dose-dependent manner.
In this study we examined whether CC220 CRBN-ligand-induced recruitment of ASS1 to CRBN could lead to subsequent ASS1 degradation (as triggered by interaction with the CRBN E3 ligase). For this analysis, cells were transfected with FLAG-tagged ASS1 and HA-tagged CRBN encoding constructs, and any change in steady state levels of ASS1 in response to incubation of cells with CC220 for a specified time was assessed by Western blot analysis. […] Next, cells were lysed and a fraction of the lysate was analyzed via SDS-PAGE and Western Blot analysis with an anti-FLAG antibody (Sigma). […]

CRBN-ASS1 interaction [1] = biological target: T1, CRBN-ASS1 interaction (Homo sapiens, UniProt Q96SW2); experiment: Co-immunoprecipitation of Flag-ASS1 and HA-CRBN in HEK293T cells; format: cell-based; conditions: 1 μM and 3 μM, 24 hours
T1 construct: expressed in transfected cells; host or cells: HEK293T
Source text: FIGS. 3A-B Ligand-induced CRBN-ASS1 interaction in living cells—as assessed by co-immunoprecipitation analysis. In this study we examined the ability of Flag-tagged ASS1 (or Flag tagged gp130-ASS1 fusion protein, as identified in the assay described in FIG. 1) and HA-tagged CRBN to interact in living cells upon transfection and expression of each construct in HEK293T cells—in the presence or absence of the CRBN IMiD ligand CC220. Ability of HA-tagged CRBN to interact in response to CC220 with the known CRBN neosubstrate IKZF3 was also examined (with IKZF3 expressed as a Flag-tagged IKZF3 fusion protein). […] Western analysis was performed with an anti-HA antibody to determine extent of immunoprecipitated CRBN in each sample (expected to vary in dependence of CC220 exposure) and an anti-Flag antibody to determine extent of immunoprecipitated Flag-ASS1, Flag-gp130-ASS1 or Flag-IKZF3 in each sample (which would be expected to be the same). […]
In this study we assessed via co-immunoprecipitation of protein complexes the ability of the CRBN ligand CC220 to induce an interaction with ASS1 when expressed in HEK293 cells. […] FLAG-tagged ASS1 was detected using an anti-FLAG Ab (SIGMA) respectively (FIG. 3A, lower panel). […]

CRBN-ASS1 interaction [2] = biological target: T1, CRBN-ASS1 interaction; experiment: MAPPIT cell microarray screen of ORF library for ligand-induced CRBN neosubstrates; format: cell-based; conditions: HEK293T cells, CC-220 at 10 μM, fluorescence reporter read 48 hours later
CRBN = biological target: T2, CRBN (Homo sapiens, UniProt Q96SW2); experiment: MAPPIT-like ligand competition assay for CRBN binding in HEK293T cells (trimethoprim-lenalidomide hybrid ligand, luciferase reporter); format: cell-based; conditions: competition for binding to CRBN
T2 construct: expressed in transfected cells; host or cells: HEK293T

[3] = patients with AL amyloidosis during lenalidomide treatment; cited from earlier work

| SMILES | ASS1 steady state levels (Western blot, in words) (ASS1) | recruitment of ASS1 into CRBN complex by co-immunoprecipitation (in words) (CRBN-ASS1 interaction [1]) | ligand-induced ASS1 interaction with CRBN in cell microarray screen (in words) (CRBN-ASS1 interaction [2]) | inhibition of hybrid-ligand induced luciferase reporter activation (in words) (CRBN) | patients showing worsening of kidney function [3] | patients with severe kidney dysfunction [3] |
| --- | --- | --- | --- | --- | --- | --- |
| O=C1CC[C@H](N2Cc3c(OCc4ccc(CN5CCOCC5)cc4)cccc3C2=O)C(=O)N1 [CC-220] | decrease in a dose responsive manner | specifically induces the recruitment of ASS1 into a CRBN-CC220 complex | identified Argininosuccinate Synthase 1 (ASS1) as a novel CC220-induced CRBN neosubstrate | specifically inhibit hybrid-ligand induced luciferase reporter activation in a dose dependent manner |  |  |
| Nc1cccc2c1CN(C1CCC(=O)NC1=O)C2=O (stereo not drawn) [LEN, lenalidomide] |  |  |  |  | 66% | 32% |
